In patent publication EP0227593A1, “Use of chelating agents” (THE HOSPITAL FOR SICK CHILDREN, priority 1985, dated 1987):

Columns and labels:
blasts = test: Marrow aspirate and cytochemistry at conclusion of the 20-day treatment protocol; format: in vivo, human
Excerpt: In contrast to the marrow aspirate prior to DFO therapy, 60 % of the blasts were positive for non-specific esterase and staining could be inhibited by fluoride.

L-1210 tumour cells = test: L-1210 tumour growth in mice; format: in vivo; details: day 8
Experimental: One hour prior to kill on day 8 the mice received one ip injection of 0.002 mCi of 3H-thymidine per g body weight. Cells were harvested from the peritoneal cavity, the volume of ascites measured and the cell counts determined in a coulter counter, after lysis of red cells with zap-oglobin, for calculation of total tumour cell numbers. Also, of each sample cell smears were done, Feulgen stained and autoradiographed, whereby the number and percentage of labelled cells was determined and used as a measure for proliferating cells.

bone marrow cells = test: Surface marker analysis by immunofluorescence on bone marrow cells at conclusion of the 20-day treatment; format: in vivo, human; details: conclusion of 20-day treatment course
Experimental: Cell Culture Procedure: 2 x 10⁵ T-depleted cells were incubated with 40 % RPMI-methylcellulose, 20 % PHA-LCM, 10 % FCS, irradiated feeder cells (10⁵/dish), 16.6 % RPMI in 35 mm Petri dishes. The culture dishes were placed into a specialized modular incubator chamber (Billups-Rosenberg, Del Mar, CA) in a humidified atmosphere of 5 % O₂, 5 % CO₂ and balanced nitrogen for 3-6 days. After 2 days of incubation, the culture dishes were carefully examined. Colonies were counted at day 4. A cluster of more than 20 cells was defined as a colony. Individual colonies were plucked from the culture plates and smeared on microscope slides for further evaluation, using Wright stain and non-specific esterase staining. For control, 2 x 10⁵ irradiated feeder cells were cultured in the same assay system in each experiment to exclude their potential for colony formation Immunocytochemical Method: The cell surface antigens of air dried smears were detected using monoclonal antibodies and intestinal alkaline phosphatase, as previously described. This assay was performed to detect surface antigens on patients' PB and BM smears and colonies plucked from cultures. The slides were counter- stained in hematoxylin for light microscopy and the presence of surface antigen was indicated as bright red granular cellular inclusions. Morphologic details were well preserved, and a very high degree of correlation between morphology and surface antigen expression was observed. The intensity of staining was defined as strong (+++), moderate (++) and weak (+). Immunofluorescence Method: The cell surface phenotype was determined by indirect cell-surface fluorescence: A fluorescein-conjugated goat anti-mouse IgG (FAb')₂ was used as second antibody. The labelling was performed at room temperature in the presence of 0.2 % sodium azide. The percentage of cells with surface fluorescence was determined by counting cells stained in three replicate wells using an inverted phase-fluorescent microscope. Monoclonal Antibodies: The following monoclonal antibodies were used in these studies: anti-OKIa (Ortho Diagnostic Systems Inc. Raritan, NJ) to detect HLA-D framework antigen, anti-MY-7, anti-Mol and anti-MY-4 (coulter Immunology) to identify myelomonocytic markers, anti-Ig. anti-BA1, anti-BA2, anti-B1, and anti-B4 (Becton-Dickinson) to recognize cells of the B-cell lineage, anti-J5 (Coulter Immunology) to recognize cells bearing common ALL (CALLA) antigen and anti-Leu-1 and anti-Leu-4 (Coulter Immunology) to recognize cells of the T-cell lineage.
Immunologic surface markers were determined by immunofluorescence before and at the conclusion of the 20-day treatment course on bone marrow cells.

[1] = DFO 400 mg/kg/d s.c. minipump from day 2, Ara-C 200 mg/kg once ip on day 6

CC(=O)N(O)CCCCCNC(=O)CCC(=O)N(O)CCCCCNC(=O)CCC(=O)N(O)CCCCCN [DFO, desferioxamine methanesulfonate]
blasts in marrow aspirate (blasts; conclusion of the 20-day treatment protocol (DFO and Ara-C)): 60%
blasts positive for non-specific esterase (blasts; marrow aspirate, conclusion of the 20-day treatment protocol): 60%
proportions of proliferating cells (L-1210 tumour cells; 3H-thymidine labelled cells, same doses as Table 12): 28 % ± 8%
Number of cells in the peritoneal cavity % of control (L-1210 tumour cells; [1]): 95%
Number of cells in the peritoneal cavity x̄ ± SD (L-1210 tumour cells; [1]): 3.49 ± 1.75 10^8
Number of proliferating cells in peritoneal cavity % of control (L-1210 tumour cells; [1]): 80%
Number of proliferating cells in peritoneal cavity x̄ ± SD (L-1210 tumour cells; [1]): 0.98 ± 0.64 10^8
% Positive Cells B4 (bone marrow cells): 10%
% Positive Cells BA-1 (bone marrow cells): 0%
% Positive Cells BA-2 (bone marrow cells): 0%
% Positive Cells Ia (bone marrow cells): 75%
% Positive Cells MY-4 (bone marrow cells): 20%
% Positive Cells MY-7 (bone marrow cells): 20%
% Positive Cells Mo1 (bone marrow cells): 20%
% Positive Cells sIg (bone marrow cells): 0%
